How the values were obtained:
Test in all cases: kinome screen (33PanQinase)
Type in all cases: biochemical
YES = biological target: T1, YES (Homo sapiens, UniProt P07947)
T1 construct: purchased Reaction Biology Europe GmbH (formerly ProQinase)
Description: (§1) The Kinome Screening was performed by Reaction Biology Europe GmbH (http://reactionbiology.com; Freiburg i. Br., Germany).

FAK = biological target: T2, FAK (Homo sapiens, UniProt Q05397)
T2 construct: purchased Reaction Biology Europe GmbH (formerly ProQinase)
Description: as §1

NEK2 = biological target: T3, NEK2 (Homo sapiens, UniProt P51955)
T3 construct: purchased Reaction Biology Europe GmbH (formerly ProQinase)
T3 sequence (P51955 1-445): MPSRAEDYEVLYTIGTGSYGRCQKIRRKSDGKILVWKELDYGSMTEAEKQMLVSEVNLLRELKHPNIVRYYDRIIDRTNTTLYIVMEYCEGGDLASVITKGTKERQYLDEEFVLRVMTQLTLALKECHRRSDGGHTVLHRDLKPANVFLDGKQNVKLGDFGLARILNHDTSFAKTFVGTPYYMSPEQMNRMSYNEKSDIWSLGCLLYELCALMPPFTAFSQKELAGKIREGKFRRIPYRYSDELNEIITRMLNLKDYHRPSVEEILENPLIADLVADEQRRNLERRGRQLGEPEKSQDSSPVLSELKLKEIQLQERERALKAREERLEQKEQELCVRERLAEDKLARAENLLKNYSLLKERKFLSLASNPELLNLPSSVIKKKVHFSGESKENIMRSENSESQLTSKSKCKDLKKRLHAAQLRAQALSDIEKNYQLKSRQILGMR
Description: as §1

EPHA2 = biological target: T4, EPHA2 (Homo sapiens, UniProt P29317)
T4 construct: purchased Reaction Biology Europe GmbH (formerly ProQinase)
Description: as §1

MKK6 SDTD = biological target: T5, MKK6 SDTD (Homo sapiens, UniProt P52564, S207D/T211D)
T5 construct: purchased Reaction Biology Europe GmbH (formerly ProQinase)
T5 sequence (P52564 1-334 S207D/T211D): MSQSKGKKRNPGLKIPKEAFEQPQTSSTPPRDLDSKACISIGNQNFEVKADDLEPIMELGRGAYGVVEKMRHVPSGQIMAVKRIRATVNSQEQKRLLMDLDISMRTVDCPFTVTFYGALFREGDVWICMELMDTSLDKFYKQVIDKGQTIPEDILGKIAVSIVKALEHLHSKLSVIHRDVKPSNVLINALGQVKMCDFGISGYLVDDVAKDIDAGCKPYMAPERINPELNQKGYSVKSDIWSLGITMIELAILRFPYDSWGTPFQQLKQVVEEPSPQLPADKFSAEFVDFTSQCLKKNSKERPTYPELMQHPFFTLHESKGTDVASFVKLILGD
Description: as §1

TLK2 = biological target: T6, TLK2 (Homo sapiens, UniProt Q86UE8)
T6 construct: purchased Reaction Biology Europe GmbH (formerly ProQinase)
Description: as §1

HCK = biological target: T7, HCK (Homo sapiens, UniProt P08631)
T7 construct: purchased Reaction Biology Europe GmbH (formerly ProQinase)
Description: as §1

EIF2AK2 = biological target: T8, EIF2AK2 (Homo sapiens, UniProt P19525)
T8 construct: purchased Reaction Biology Europe GmbH (formerly ProQinase)
Description: as §1

NIK = biological target: T9, NIK (Homo sapiens, UniProt Q99558)
T9 construct: purchased Reaction Biology Europe GmbH (formerly ProQinase)
Description: as §1

STK17A = biological target: T10, STK17A (Homo sapiens, UniProt Q9UEE5)
T10 construct: purchased Reaction Biology Europe GmbH (formerly ProQinase)
T10 sequence (Q9UEE5 1-414): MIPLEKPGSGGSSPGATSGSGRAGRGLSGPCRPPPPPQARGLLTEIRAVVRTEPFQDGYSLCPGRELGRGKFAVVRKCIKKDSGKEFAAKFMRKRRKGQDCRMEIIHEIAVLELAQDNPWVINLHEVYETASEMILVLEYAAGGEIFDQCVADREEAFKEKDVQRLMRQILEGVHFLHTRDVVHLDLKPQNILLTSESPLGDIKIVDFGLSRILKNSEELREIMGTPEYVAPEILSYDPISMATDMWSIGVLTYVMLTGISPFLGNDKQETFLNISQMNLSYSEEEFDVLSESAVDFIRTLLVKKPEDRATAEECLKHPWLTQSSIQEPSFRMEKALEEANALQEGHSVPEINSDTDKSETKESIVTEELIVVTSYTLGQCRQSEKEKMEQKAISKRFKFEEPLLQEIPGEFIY
Description: as §1

INSR = biological target: T11, INSR (Homo sapiens, UniProt P06213)
T11 construct: purchased Reaction Biology Europe GmbH (formerly ProQinase)
Description: as §1

RON = biological target: T12, RON (Homo sapiens, UniProt Q04912)
T12 construct: purchased Reaction Biology Europe GmbH (formerly ProQinase)
Description: as §1

AuroraA = biological target: T13, AuroraA (Homo sapiens, UniProt O14965)
T13 construct: purchased Reaction Biology Europe GmbH (formerly ProQinase)
T13 sequence (O14965 1-403): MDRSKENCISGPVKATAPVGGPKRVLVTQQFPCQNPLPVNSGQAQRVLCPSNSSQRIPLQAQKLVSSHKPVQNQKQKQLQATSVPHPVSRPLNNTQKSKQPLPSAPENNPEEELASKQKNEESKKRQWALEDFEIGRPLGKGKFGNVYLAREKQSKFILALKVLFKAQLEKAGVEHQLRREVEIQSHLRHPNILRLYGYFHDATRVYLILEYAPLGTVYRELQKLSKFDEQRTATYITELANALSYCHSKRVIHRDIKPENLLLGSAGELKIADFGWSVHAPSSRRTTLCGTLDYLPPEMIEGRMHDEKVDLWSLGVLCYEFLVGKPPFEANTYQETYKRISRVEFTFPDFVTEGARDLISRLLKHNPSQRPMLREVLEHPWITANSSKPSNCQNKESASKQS
Description: as §1

T2 sequence (Q05397 whole entry): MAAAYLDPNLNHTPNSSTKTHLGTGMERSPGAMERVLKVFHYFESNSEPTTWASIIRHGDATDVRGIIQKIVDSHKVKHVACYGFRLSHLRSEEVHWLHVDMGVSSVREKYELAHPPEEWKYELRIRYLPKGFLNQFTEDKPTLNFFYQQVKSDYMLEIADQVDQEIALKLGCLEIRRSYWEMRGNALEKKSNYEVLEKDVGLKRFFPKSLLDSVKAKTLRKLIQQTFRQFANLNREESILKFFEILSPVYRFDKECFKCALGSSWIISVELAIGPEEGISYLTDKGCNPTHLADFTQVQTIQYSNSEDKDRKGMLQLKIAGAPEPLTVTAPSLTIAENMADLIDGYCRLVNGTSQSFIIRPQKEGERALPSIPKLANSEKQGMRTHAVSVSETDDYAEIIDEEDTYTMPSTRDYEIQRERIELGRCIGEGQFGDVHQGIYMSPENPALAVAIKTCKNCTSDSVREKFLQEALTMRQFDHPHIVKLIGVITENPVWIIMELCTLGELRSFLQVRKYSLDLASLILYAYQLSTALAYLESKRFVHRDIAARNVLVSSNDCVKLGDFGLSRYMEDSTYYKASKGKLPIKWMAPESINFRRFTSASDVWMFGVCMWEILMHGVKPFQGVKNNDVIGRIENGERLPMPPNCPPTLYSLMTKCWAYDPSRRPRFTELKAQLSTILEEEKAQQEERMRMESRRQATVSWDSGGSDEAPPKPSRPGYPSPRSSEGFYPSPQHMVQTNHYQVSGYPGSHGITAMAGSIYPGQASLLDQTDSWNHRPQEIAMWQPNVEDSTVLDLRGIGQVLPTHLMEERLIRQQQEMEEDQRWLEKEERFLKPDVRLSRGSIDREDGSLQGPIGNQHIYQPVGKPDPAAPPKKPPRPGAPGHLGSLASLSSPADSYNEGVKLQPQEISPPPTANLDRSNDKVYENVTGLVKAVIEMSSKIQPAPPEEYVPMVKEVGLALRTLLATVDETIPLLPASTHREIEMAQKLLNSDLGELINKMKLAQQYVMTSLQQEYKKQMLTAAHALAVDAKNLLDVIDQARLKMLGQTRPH
T12 sequence (Q04912 25-1400): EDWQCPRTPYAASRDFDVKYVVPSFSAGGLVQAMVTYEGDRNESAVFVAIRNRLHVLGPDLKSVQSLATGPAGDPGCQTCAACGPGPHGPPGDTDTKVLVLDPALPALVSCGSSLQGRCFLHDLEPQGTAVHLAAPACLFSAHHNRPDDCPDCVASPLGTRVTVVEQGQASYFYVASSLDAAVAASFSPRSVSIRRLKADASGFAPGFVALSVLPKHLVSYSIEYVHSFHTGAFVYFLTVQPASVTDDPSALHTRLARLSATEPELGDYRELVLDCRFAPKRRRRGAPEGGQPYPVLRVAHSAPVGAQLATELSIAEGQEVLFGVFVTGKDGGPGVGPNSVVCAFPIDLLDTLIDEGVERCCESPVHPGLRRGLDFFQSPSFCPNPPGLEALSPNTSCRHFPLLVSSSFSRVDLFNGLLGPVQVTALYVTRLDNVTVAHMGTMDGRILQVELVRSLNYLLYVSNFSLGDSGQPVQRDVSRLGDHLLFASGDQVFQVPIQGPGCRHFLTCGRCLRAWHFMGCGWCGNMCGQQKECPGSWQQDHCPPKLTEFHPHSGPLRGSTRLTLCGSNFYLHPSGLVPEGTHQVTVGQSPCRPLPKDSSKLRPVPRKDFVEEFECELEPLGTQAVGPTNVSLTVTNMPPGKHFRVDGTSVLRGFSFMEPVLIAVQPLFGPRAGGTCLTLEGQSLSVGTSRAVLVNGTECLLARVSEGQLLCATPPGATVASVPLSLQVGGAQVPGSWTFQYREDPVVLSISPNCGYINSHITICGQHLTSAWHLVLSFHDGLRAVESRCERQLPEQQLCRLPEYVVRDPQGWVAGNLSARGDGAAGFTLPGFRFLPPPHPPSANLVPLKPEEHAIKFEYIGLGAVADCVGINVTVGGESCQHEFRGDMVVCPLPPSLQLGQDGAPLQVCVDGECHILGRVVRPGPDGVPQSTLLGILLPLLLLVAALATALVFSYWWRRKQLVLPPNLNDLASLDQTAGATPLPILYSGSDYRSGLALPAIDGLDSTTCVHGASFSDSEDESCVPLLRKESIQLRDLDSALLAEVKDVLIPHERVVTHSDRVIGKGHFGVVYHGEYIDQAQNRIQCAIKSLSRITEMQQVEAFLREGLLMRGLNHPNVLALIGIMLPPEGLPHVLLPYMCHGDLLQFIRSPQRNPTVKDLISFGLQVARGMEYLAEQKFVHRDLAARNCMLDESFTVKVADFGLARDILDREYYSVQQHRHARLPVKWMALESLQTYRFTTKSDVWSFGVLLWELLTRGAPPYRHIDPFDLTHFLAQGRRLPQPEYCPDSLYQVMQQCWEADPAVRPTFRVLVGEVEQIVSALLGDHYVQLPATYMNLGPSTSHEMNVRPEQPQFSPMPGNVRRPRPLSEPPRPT
T6 sequence (Q86UE8 whole entry): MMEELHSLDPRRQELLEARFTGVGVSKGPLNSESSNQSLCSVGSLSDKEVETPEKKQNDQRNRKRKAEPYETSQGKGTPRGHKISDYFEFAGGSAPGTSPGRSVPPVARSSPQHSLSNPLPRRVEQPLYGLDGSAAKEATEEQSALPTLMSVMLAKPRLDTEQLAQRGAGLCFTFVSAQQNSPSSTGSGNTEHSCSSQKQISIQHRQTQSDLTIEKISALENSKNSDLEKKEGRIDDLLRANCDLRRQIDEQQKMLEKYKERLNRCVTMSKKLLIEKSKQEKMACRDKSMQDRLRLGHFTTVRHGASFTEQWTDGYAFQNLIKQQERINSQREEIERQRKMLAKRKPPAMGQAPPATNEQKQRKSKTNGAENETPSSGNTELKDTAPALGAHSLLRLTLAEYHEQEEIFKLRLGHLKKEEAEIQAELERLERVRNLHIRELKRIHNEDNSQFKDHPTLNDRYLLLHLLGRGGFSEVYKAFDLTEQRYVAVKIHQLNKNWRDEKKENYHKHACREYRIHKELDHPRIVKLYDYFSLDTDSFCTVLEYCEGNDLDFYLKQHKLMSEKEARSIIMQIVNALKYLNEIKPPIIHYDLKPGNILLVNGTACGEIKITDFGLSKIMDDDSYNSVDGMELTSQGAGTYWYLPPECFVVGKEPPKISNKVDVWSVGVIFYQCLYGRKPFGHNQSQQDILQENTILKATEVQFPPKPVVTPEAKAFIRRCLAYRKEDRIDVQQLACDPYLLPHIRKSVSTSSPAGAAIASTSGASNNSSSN
T4 sequence (P29317 24-976): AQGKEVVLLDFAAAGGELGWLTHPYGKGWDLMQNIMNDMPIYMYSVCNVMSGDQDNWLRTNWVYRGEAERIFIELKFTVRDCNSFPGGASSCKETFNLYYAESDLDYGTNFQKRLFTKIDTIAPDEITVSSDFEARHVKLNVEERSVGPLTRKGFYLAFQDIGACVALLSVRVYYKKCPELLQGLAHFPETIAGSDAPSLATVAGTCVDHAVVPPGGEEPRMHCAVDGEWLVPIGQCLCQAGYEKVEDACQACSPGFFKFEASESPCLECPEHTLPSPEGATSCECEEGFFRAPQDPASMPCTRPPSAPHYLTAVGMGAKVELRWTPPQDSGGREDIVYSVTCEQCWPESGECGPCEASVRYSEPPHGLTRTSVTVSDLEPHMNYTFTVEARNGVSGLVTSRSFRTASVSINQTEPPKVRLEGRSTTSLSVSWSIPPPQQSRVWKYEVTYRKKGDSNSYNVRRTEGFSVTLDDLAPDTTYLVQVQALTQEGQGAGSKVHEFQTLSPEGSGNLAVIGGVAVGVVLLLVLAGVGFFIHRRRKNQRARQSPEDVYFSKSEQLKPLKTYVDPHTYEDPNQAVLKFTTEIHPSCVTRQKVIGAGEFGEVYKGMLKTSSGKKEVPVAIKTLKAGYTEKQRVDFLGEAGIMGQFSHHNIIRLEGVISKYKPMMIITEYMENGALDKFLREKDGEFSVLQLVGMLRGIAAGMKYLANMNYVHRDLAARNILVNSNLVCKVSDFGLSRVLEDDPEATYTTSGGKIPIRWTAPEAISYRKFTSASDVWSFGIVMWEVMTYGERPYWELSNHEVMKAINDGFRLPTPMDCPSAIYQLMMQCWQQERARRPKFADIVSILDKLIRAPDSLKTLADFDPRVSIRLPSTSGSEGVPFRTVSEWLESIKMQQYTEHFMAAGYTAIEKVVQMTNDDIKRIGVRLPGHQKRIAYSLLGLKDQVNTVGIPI
T8 sequence (P19525 whole entry): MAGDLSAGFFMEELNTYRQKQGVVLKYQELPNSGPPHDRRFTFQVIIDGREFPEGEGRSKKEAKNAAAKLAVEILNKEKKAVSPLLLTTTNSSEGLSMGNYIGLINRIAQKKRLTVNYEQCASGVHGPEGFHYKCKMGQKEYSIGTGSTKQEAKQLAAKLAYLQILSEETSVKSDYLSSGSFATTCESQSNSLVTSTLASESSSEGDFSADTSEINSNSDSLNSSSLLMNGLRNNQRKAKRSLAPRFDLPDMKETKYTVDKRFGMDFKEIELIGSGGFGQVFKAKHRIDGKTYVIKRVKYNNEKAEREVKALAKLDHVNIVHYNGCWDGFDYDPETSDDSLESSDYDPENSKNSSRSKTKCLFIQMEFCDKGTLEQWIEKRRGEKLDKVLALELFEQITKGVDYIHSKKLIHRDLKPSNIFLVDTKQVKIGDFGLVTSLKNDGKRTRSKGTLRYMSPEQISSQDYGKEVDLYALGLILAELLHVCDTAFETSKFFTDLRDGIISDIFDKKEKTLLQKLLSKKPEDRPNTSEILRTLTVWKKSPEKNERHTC

Compound	residual kinase activity (YES; 0.3 µM)	residual kinase activity (FAK; 0.3 µM)	residual kinase activity (NEK2; 0.3 µM)	residual kinase activity (EPHA2; 0.3 µM)	residual kinase activity (MKK6 SDTD; 0.3 µM)	residual kinase activity (TLK2; 0.3 µM)	residual kinase activity (HCK; 0.3 µM)	residual kinase activity (EIF2AK2; 0.3 µM)	residual kinase activity (NIK; 0.3 µM)	residual kinase activity (STK17A; 0.3 µM)	residual kinase activity (INSR; 0.3 µM)	residual kinase activity (RON; 0.3 µM)	residual kinase activity (AuroraA; 0.3 µM)	also measured
c1ccc(CNc2cc(-c3c[nH]c4ncccc34)ccn2)cc1 [meriolin 36]	65 % of control	85 % of control	95 % of control	101 % of control	63 % of control	149 % of control	75 % of control	79 % of control	59 % of control	23 % of control	82 % of control	98 % of control	81 % of control	residual kinase activity (YES; 3 µM): 19 % of control; residual kinase activity (FAK; 3 µM): 60 % of control; residual kinase activity (NEK2; 3 µM): 72 % of control; residual kinase activity (EPHA2; 3 µM): 72 % of control; residual kinase activity (MKK6 SDTD; 3 µM): 30 % of control; residual kinase activity (TLK2; 3 µM): 88 % of control; residual kinase activity (HCK; 3 µM): 25 % of control; residual kinase activity (EIF2AK2; 3 µM): 63 % of control; residual kinase activity (NIK; 3 µM): 33 % of control; residual kinase activity (STK17A; 3 µM): 4 % of control; residual kinase activity (INSR; 3 µM): 36 % of control; residual kinase activity (RON; 3 µM): 76 % of control; residual kinase activity (AuroraA; 3 µM): 35 % of control
COc1ccnc2[nH]cc(-c3cc(N)nc(N)c3)c12 [meriolin 16]	90 % of control	89 % of control	96 % of control	101 % of control	87 % of control	91 % of control	81 % of control	95 % of control	79 % of control	23 % of control	91 % of control	90 % of control	107 % of control	residual kinase activity (YES; 0.03 µM): 100 % of control; residual kinase activity (FAK; 0.03 µM): 102 % of control; residual kinase activity (NEK2; 0.03 µM): 103 % of control; residual kinase activity (EPHA2; 0.03 µM): 109 % of control; residual kinase activity (MKK6 SDTD; 0.03 µM): 77 % of control; residual kinase activity (TLK2; 0.03 µM): 111 % of control; residual kinase activity (HCK; 0.03 µM): 106 % of control; residual kinase activity (EIF2AK2; 0.03 µM): 83 % of control; residual kinase activity (NIK; 0.03 µM): 94 % of control; residual kinase activity (STK17A; 0.03 µM): 83 % of control; residual kinase activity (INSR; 0.03 µM): 96 % of control; residual kinase activity (RON; 0.03 µM): 92 % of control; residual kinase activity (AuroraA; 0.03 µM): 109 % of control
